The record followed here is patent US20240166652A1, “MODULATORS OF THE INTEGRATED STRESS PATHWAY” (Calico Life Sciences LLC, priority 2017, published 2024).

This experiment relates to ATF4 luciferase reporter in HEK293T cells. Briefly: ATF4-Luc assay (ATF4 luciferase reporter, tunicamycin-treated HEK293T cells). In kind it is cell-based, human. Conditions: Homo sapiens, HEK-293T; HEK293T cells carrying the ATF4 luciferase reporter, 1 μg/mL tunicamycin, 7 hours. A general note: In a reporter assay the amount or activity of a reporter protein is the signal.

For orientation: EC50 means the concentration giving half of the maximal effect. As for `O=C(Cc1ccc(C(F)(F)F)cn1)NC12CCC(NC(=O)COc3ccc(Cl)c(F)c3)(CC1)C(O)C2` (stereo not shown) [Compound 356, 2-(4-chloro-3-fluorophenoxy)-N-(2-hydroxy-4-{2-[5-(trifluoromethyl)pyridin-2-yl]acetamido}bicyclo[2.2.2]octan-1-yl)acetamide], the EC50 was in the range of 10 to 50 nM.
On to `Cc1cc(OCC(=O)NC23CCC(NC(=O)COc4ccc(F)cc4)(CC2)[C@@H](O)C3)ccc1F` [Compound 817, 2-(4-fluoro-3-methylphenoxy)-N-{(3S)-4-[2-(4-fluorophenoxy)acetamido]-3-hydroxybicyclo[2.2.2]octan-1-yl}acetamide], for which the EC50 is below 10 nM.
The figure for `Cc1cc(OCC(=O)NC23CC(NC(=O)COc4ccc(Cl)c(F)c4)(C2)C3)cnc1C#N` [Compound 242, 2-(4-chloro-3-fluorophenoxy)-N-(3-{2-[(6-cyano-5-methylpyridin-3-yl)oxy]acetamido}bicyclo[1.1.1]pentan-1-yl)acetamide] is 10 to 50 nM; for `O=C(COc1ccc(Cl)c(F)c1)NC12CCC(NC(=O)Cc3ccc(C(F)(F)F)cc3)(CC1)C(O)C2` (stereo not shown) [Compound 322, 2-(4-chloro-3-fluorophenoxy)-N-(3-hydroxy-4-{2-[4-(trifluoromethyl)phenyl]acetamido}bicyclo[2.2.2]octan-1-yl)acetamide] it is 50 to 250 nM; for `O=C(COc1ccc(Cl)c(F)c1)NC12CCC(NC(=O)COc3ccc(C(F)(F)F)nc3)(CC1)C(F)C2` (stereo not shown) [Compound 366, 2-(4-chloro-3-fluorophenoxy)-N-[3-fluoro-4-(2-{[6-(trifluoromethyl)pyridin-3-yl]oxy}acetamido)bicyclo[2.2.2]octan-1-yl]acetamide] it is 10 to 50 nM.
Next, `O=C(COc1ccc(Cl)c(F)c1)NC12CC(NC(=O)COc3cnc(C(F)F)cn3)(C1)C2` [Compound 384, 2-(4-chloro-3-fluorophenoxy)-N-[3-(2-{[5-(difluoromethyl)pyrazin-2-yl]oxy}acetamido)bicyclo[1.1.1]pentan-1-yl]acetamide]: above 2000 nM; `O=C(COc1ccc(Cl)cc1)NC12CC(NC(=O)COc3ccc(F)c(F)c3)(C1)C2` [Compound 837, 2-(4-chlorophenoxy)-N-{3-[2-(3,4-difluorophenoxy)acetamido]bicyclo[1.1.1]pentan-1-yl}acetamide]: below 10 nM; `O=C(COc1ccc2c(c1)OC(F)(F)O2)NC12CCC(NC(=O)COc3ccc(OC(F)(F)F)cc3)(CC1)[C@@H](O)C2` [Compound 786, 2-[(2,2-difluoro-2H-1,3-benzodioxol-5-yl)oxy]-N-[(3S)-3-hydroxy-4-{2-[4-(trifluoromethoxy)phenoxy]acetamido}bicyclo[2.2.2]octan-1-yl]acetamide]: below 10 nM.
The figure for `O=C(COc1ccc(Cl)c(F)c1)NC12CCC(NC(=O)OCc3ccccc3)(C1)C2` [Compound 180, benzyl {4-[2-(4-chloro-3-fluorophenoxy)acetamido]bicyclo[2.1.1]hexan-1-yl}carbamate] is 50 to 250 nM.
Take `O=C(/C=C/c1ccc(OC(F)(F)F)cn1)NC12CCC(NC(=O)COc3ccc(Cl)c(F)c3)(C1)C2` [Compound 425, (2E)-N-{4-[2-(4-chloro-3-fluorophenoxy)acetamido]bicyclo[2.1.1]hexan-1-yl}-3-[5-(trifluoromethoxy)pyridin-2-yl]prop-2-enamide]: the EC50 lay within 500 to 2000 nM.
Next, `COC(=O)c1cc(OCC(=O)NC23CCC(NC(=O)COc4ccc(Cl)c(F)c4)(CC2)[C@@H](O)C3)ccc1Cl` [Compound 597, methyl 2-chloro-5-[2-({(3S)-4-[2-(4-chloro-3-fluorophenoxy)acetamido]-3-hydroxybicyclo[2.2.2]octan-1-yl}amino)-2-oxoethoxy]benzoate]: 10 to 50 nM; `O=C(COc1ccc(F)c(F)c1)NC12CCC(NC(=O)COc3ccc(Cl)c(F)c3)(CC1)C(O)C2` (stereo not shown) [Compound 329, 2-(4-chloro-3-fluorophenoxy)-N-{4-[2-(3,4-difluorophenoxy)acetamido]-2-hydroxybicyclo[2.2.2]octan-1-yl}acetamide]: below 10 nM.
The figure for `O=C(COc1ccc(Cl)c(F)c1)NC12CC(NC(=O)Cc3ccccc3)(C1)C2` [Compound 446, 2-(4-chloro-3-fluorophenoxy)-N-[3-(2-phenylacetamido)bicyclo[1.1.1]pentan-1-yl]acetamide] is above 2000 nM; for `COc1cc(OCC(=O)NC23CCC(NC(=O)COc4ccc(Cl)c(F)c4)(CC2)[C@@H](O)C3)ncn1` [Compound 666, 2-(4-chloro-3-fluorophenoxy)-N-[(2S)-2-hydroxy-4-{2-[(6-methoxypyrimidin-4-yl)oxy]acetamido}bicyclo[2.2.2]octan-1-yl]acetamide] it is 50 to 250 nM.
For the molecule `O=C(COc1ccc(Cl)c(F)c1)NC12CCC(NC(=O)COc3ccc(Cl)c(F)c3)(CC1)C1(CO1)C2` (stereo not shown) [Compound 654, N,N′-(spiro[bicyclo[2.2.2]octane-2,2′-oxirane]-1,4-diyl)bis[2-(4-chloro-3-fluorophenoxy)acetamide]], the EC50 is below 10 nM.
Next, `O=C(/C=C/c1ccc(Cl)c(Cl)c1)NC12CC(NC(=O)COc3ccc(Cl)c(F)c3)(C1)C2` [Compound 348, (2E)-N-{3-[2-(4-chloro-3-fluorophenoxy)acetamido]bicyclo[1.1.1]pentan-1-yl}-3-(3,4-dichlorophenyl)prop-2-enamide]: 10 to 50 nM; `O=C(COc1ccc(Cl)c(F)c1)N[C@@H]1C[C@@H]2C[C@H]1C[C@H]2NC(=O)COc1ccc(Cl)c(F)c1` (racemic) [Compound 628, rac-N,N′-[(1R,2S,4R,5S)-bicyclo[2.2.1]heptane-2,5-diyl]bis[2-(4-chloro-3-fluorophenoxy)acetamide]]: below 10 nM.
The figure for `Cc1ccc(OCC(=O)NC23CC(NC(=O)COc4ccc(Cl)c(F)c4)(C2)C3)cn1` [Compound 206, 2-(4-chloro-3-fluorophenoxy)-N-(3-{2-[(6-methylpyridin-3-yl)oxy]acetamido}bicyclo[1.1.1]pentan-1-yl)acetamide] is 50 to 250 nM; for `O=C(COc1ccc(OC(F)(F)F)c(F)c1)NC12CCC(NC(=O)COc3ccc(OC(F)(F)F)cc3)(CC1)[C@@H](O)C2` [Compound 764, 2-[3-fluoro-4-(trifluoromethoxy)phenoxy]-N-[(3S)-3-hydroxy-4-{2-[4-(trifluoromethoxy)phenoxy]acetamido}bicyclo[2.2.2]octan-1-yl]acetamide] it is 10 to 50 nM; for `COc1ccc(OCC(=O)NC23CC(NC(=O)COc4ccc(Cl)c(F)c4)(C2)C3)cn1` [Compound 241, 2-(4-chloro-3-fluorophenoxy)-N-(3-{2-[(6-methoxypyridin-3-yl)oxy]acetamido}bicyclo[1.1.1]pentan-1-yl)acetamide] it is 10 to 50 nM.
The figure for `Cc1cc(OCC(=O)NC23CCC(NC(=O)COc4ccc(Cl)c(C)c4)(CC2)[C@@H](O)C3)ccc1Cl` [Compound 525, N,N′-[(2S)-2-hydroxybicyclo[2.2.2]octane-1,4-diyl]bis[2-(4-chloro-3-methylphenoxy)acetamide]] is below 10 nM; for `O=C(COc1ccc(Cl)c(Cl)c1)NC12CC(NC(=O)COc3cnc(C4CC4)cn3)(C1)C2` [Compound 285, 2-[(5-cyclopropylpyrazin-2-yl)oxy]-N-{3-[2-(3,4-dichlorophenoxy)acetamido]-bicyclo[1.1.1]pentan-1-yl}acetamide] it is 50 to 250 nM.
For the molecule `O=C(COc1ccc(Cl)c(F)c1)NC12CC(COc3ccc(C(F)F)cn3)(C1)C2` [Compound 613, 2-(4-chloro-3-fluorophenoxy)-N-[3-({[5-(difluoromethyl)pyridin-2-yl]oxy}methyl)bicyclo[1.1.1]pentan-1-yl]acetamide], the EC50 lay within 500 to 2000 nM.
Next, `O=C(COc1ccc(Cl)c(F)c1)NC12CC(NC(=O)COc3ccc(C(F)(F)F)cn3)(C1)C2` [Compound 214, 2-(4-chloro-3-fluorophenoxy)-N-[3-(2-{[5-(trifluoromethyl)pyridin-2-yl]oxy}acetamido)bicyclo[1.1.1]pentan-1-yl]acetamide]: 50 to 250 nM; `O=C(COc1ccc(Cl)c(F)c1)NC12CCC(NC(=O)COc3ncn(-c4ccc(Cl)cc4)n3)(CC1)[C@@H](O)C2` [Compound 516, 2-(4-chloro-3-fluorophenoxy)-N-[(3S)-4-(2-{[1-(4-chlorophenyl)-1H-1,2,4-triazol-3-yl]oxy}acetamido)-3-hydroxybicyclo[2.2.2]octan-1-yl]acetamide]: above 2000 nM.
`Cc1ccc(OCC(=O)NC23CCC(NC(=O)COc4ccc(Cl)c(F)c4)(CC2)[C@@H](O)C3)cc1` [Compound 475, 2-(4-chloro-3-fluorophenoxy)-N-{(2S)-2-hydroxy-4-[2-(4-methylphenoxy)acetamido]bicyclo[2.2.2]octan-1-yl}acetamide]: the half-maximal effective concentration (EC50) was below 10 nM.
The figure for `O=C(COc1ccc(Cl)c(F)c1)NC12CCC(OCCc3ccc(Cl)cc3)(CC1)CC2O` (stereo not shown) [Compound 611, 2-(4-chloro-3-fluorophenoxy)-N-{4-[2-(4-chlorophenyl)ethoxy]-2-hydroxybicyclo[2.2.2]octan-1-yl}acetamide] is 10 to 50 nM; for `O=C(COc1ccc(C(F)(F)F)nc1)NC12CCC(NC(=O)COc3ccc(Cl)c(F)c3)(CC1)CC2` [Compound 101, 2-(4-chloro-3-fluorophenoxy)-N-[4-(2-{[6-(trifluoromethyl)pyridin-3-yl]oxy}acetamido)bicyclo[2.2.2]octan-1-yl]acetamide] it is 10 to 50 nM; for `O=C(COc1ccc(Cl)c(Cl)c1)NC12CC(NCCOc3ccc(Cl)c(F)c3)(C1)C2` [Compound 124, N-(3-{[2-(4-chloro-3-fluorophenoxy)ethyl]amino}bicyclo[1.1.1]pentan-1-yl)-2-(3,4-dichlorophenoxy)acetamide] it is 10 to 50 nM.
As for `O=C(COCc1ccccc1)NC12CC(NC(=O)COc3ccc(Cl)c(F)c3)(C1)C2` [Compound 207, 2-(benzyloxy)-N-{3-[2-(4-chloro-3-fluorophenoxy)acetamido]-bicyclo[1.1.1]pentan-1-yl}acetamide], the EC50 lay in the range of 50 to 250 nM.
`O=C(COc1ccc(Cl)c(F)c1)NC12CCC(NC(=O)COc3ccc(Cl)c(F)c3)(CC1=O)C(=O)C2` [Compound 561, N,N′-(2,5-dioxobicyclo[2.2.2]octane-1,4-diyl)bis[2-(4-chloro-3-fluorophenoxy)acetamide]]: the EC50 is below 10 nM.
